In brackets after ≈: the same amount, converted by molar mass. Activity calls are given as the source filed them. No cut-off for these calls is given here.
Legend:
[1] = tested on: Staphylococcus aureus; test: Antibacterial activity against […] Staphylococcus aureus ATCC25923 assessed as inhibition in bacterial growth incubated for 18 hrs by microdilution method; format: functional
[2] = tested on: Staphylococcus aureus; test: Antibacterial activity against methicillin resistant Staphylococcus aureus CCARM3167 assessed as inhibition in bacterial growth incubated for 18 hrs by microdilution method; format: functional
[3] = tested on: Staphylococcus aureus; test: Antibacterial activity against methicillin resistance Staphylococcus aureus assessed as reduction in biofilm formation at 1/2 times MIC incubated 24 hrs by crystal violet staining based microplate reader analysis; format: functional, organism-based
[4] = target: T1, L-2,3-diaminopropanoate--citrate ligase (Staphylococcus aureus (strain NCTC 8325 / PS 47), UniProt Q2G1M9); test: Inhibition of Staphylococcus aureus SbnE incubated for 1 hr by malachite green staining based microplate reader analysis
T1 sequence (Q2G1M9 whole entry): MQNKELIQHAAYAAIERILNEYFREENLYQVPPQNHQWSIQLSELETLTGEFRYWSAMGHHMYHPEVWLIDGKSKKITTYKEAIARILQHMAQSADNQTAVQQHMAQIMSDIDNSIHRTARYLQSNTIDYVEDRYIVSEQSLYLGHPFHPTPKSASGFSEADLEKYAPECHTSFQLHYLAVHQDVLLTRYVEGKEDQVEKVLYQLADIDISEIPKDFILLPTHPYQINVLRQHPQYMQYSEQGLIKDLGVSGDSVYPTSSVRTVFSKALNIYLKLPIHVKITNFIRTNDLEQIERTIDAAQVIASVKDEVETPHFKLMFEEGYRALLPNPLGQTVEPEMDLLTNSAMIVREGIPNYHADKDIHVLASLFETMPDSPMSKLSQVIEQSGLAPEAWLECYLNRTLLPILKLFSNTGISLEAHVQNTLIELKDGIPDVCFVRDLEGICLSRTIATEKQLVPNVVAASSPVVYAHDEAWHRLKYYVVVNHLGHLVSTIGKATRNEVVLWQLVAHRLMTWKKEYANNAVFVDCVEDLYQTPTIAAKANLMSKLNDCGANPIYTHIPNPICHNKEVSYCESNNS

[5] = tested on: Cell membrane; test: Induction of membrane disruption in methicillin resistant Staphylococcus aureus CCARM3167 at MIC incubated for 30 mins PI staining based Flow cytometry
[6] = target: T2, L-2,3-diaminopropanoate--citrate ligase (Staphylococcus aureus (strain NCTC 8325 / PS 47)) (UniProt Q2G1M9); test: Inhibition of Staphylococcus aureus SbnE at 50 uM incubated for 1 hr by malachite green staining based microplate reader analysis relative to control
T2 sequence (whole entry): T1 sequence (Q2G1M9 whole entry)

[7] = tested on: Escherichia coli; test: Antibacterial activity against Escherichia coli MC1061 assessed as inhibition of bacterial growth incubated for 18 hrs by microdilution method; format: functional
[8] = tested on: Bacillus cereus; test: Antibacterial activity against Bacillus cereus ATCC27348 assessed as inhibition of bacterial growth incubated for 18 hrs by microdilution method; format: functional
[9] = tested on: Salmonella typhimurium; test: Antibacterial activity against Salmonella typhimurium ATCC14028 assessed as inhibition of bacterial growth incubated for 18 hrs by microdilution method; format: functional, Salmonella enterica subsp. enterica serovar Typhimurium; conditions: Salmonella enterica
[10] = tested on: Staphylococcus aureus; test: Antibacterial activity against quinolone-resistant Staphylococcus aureus CCARM3505 assessed as inhibition of bacterial growth incubated for 18 hrs by microdilution method; format: functional
[11] = Antibacterial activity against Bacillus subtilis ATCC6633 assessed as inhibition of bacterial growth incubated for 18 hrs by microdilution method; format: functional, Bacillus subtilis […]
[12] = tested on: Staphylococcus aureus; test: Antibacterial activity against Staphylococcus aureus ATCC25923 assessed as inhibition of siderophore production at 1/2 times MIC incubated for 18 hrs by CAS liquid assay; format: functional, organism-based
[13] = tested on: Staphylococcus aureus; test: Antibacterial activity against methicillin resistance Staphylococcus aureus CCARM3167 assessed as inhibition of siderophore production at 1/4 times MIC incubated for 18 hrs by CAS liquid assay; format: functional, organism-based

Compound | MIC [1] [µg/mL] | MIC [2] [µg/mL] | Activity [3] | IC50 [4] [µM] | Activity [5] | inhibition [6] [%] | MIC [7] [µg/mL] | MIC [8] [µg/mL] | MIC [9] [µg/mL] | MIC [10] [µg/mL] | MIC [11] [µg/mL] | Activity [12] | Activity [13]
CC(C)C[C@H]([C@H](O)C[C@H](O)C#C[C@@H](C)C[C@@H](C)C[C@@H](C)COCc1ccccc1)[C@@H](O)c1cc(O)cc(O)c1 | 1 (≈ 1.85 µM) | 4 (≈ 7.4 µM) | Active | 11.4 | Active | 77.5 |  |  |  |  |  |  | 
CC(C)C[C@H]([C@H](O)CCNc1cccc(C(F)(F)F)c1)[C@@H](O)c1cc(O)cc(O)c1 | 8 (≈ 18.7 µM) | 16 (≈ 37.4 µM) | Active | 6.12 | Active | 71.1 | > 256 | 8 (≈ 18.7 µM) | > 256 | 8 (≈ 18.7 µM) | 64 (≈ 150 µM) |  | 
Cc1ccc(NCC[C@@H](O)[C@@H](CC(C)C)[C@@H](O)c2cc(O)cc(O)c2)c(Cl)c1 | 16 (≈ 39.2 µM) | 32 (≈ 78.4 µM) | Active | 4.12 | Active | 89.2 | > 256 | > 256 | > 256 | 64 (≈ 157 µM) | > 256 |  | 
C[C@@H](COCc1ccccc1)C[C@H](C)C[C@H](C)C#CC(O)C[C@@H](O)c1cc(O)cc(O)c1 (stereo not given in full) | 128 (≈ 291 µM) | 256 (≈ 581 µM) | Active | 8.94 | Active | 76.4 | > 256 | 64 (≈ 145 µM) | > 256 | 128 (≈ 291 µM) | > 256 |  | 
CC(C)C[C@H]([C@H](O)C[C@H](O)C#C[C@@H](C)C[C@H](C)C[C@@H](C)COCc1ccccc1)[C@@H](O)c1cc(O)cc(O)c1 | 8 (≈ 14.8 µM) | 4 (≈ 7.4 µM) | Active | 5.49 | Active | 71.7 | > 256 | > 256 | > 256 | 16 (≈ 29.6 µM) | > 256 |  | 
CC(C)C[C@H]([C@H](O)CCNCc1ccccc1)[C@@H](O)c1cc(O)cc(O)c1 | > 256 | > 256 |  | 3.45 |  | 97.1 |  |  |  |  |  | inactive | inactive
CC(C)C[C@@H]([C@H](O)C[C@H](O)CCCCCCCCNCc1ccccc1)[C@@H](O)c1cc(O)cc(O)c1 | 2 (≈ 3.99 µM) | 0.5 (≈ 0.997 µM) | Active | 41.1 | Active | 57.9 | 0.25 (≈ 0.498 µM) | 1 (≈ 1.99 µM) | 4 (≈ 7.97 µM) | 0.5 (≈ 0.997 µM) | 4 (≈ 7.97 µM) | inactive | inactive
CC(C)C[C@H]([C@H](O)CCN)[C@@H](O)c1cc(O)cc(O)c1 | > 256 | > 256 |  | 1.81 |  | 97.2 |  |  |  |  |  | inactive | inactive
